The results in this text go back to PMC5116814, “Potent, Reversible, and Specific Chemical Inhibitors of Eukaryotic Ribosome Biogenesis” (Cell, 2016).

Common to all, as to format: biochemical
In assay [1] the target is T1, Mdn1 (Midasin) (Schizosaccharomyces pombe, UniProt O94248).
T1 construct: recombinant full-length Mdn1 (hexahistidine-tagged, insect cells)
The experiment in a line: ATP hydrolysis by purified enzyme (radioactive and NADH-coupled ATPase assays).

Assay [2] deals with T1, Mdn1 (Midasin). In words: NADH-coupled and radioactive ATPase assays.
Assay [3] concerns the target T1, Mdn1 (Midasin). In words: NADH-coupled steady-state ATPase assay, dose-response (saturates at […] inhibition).

T1 sequence (O94248 whole entry): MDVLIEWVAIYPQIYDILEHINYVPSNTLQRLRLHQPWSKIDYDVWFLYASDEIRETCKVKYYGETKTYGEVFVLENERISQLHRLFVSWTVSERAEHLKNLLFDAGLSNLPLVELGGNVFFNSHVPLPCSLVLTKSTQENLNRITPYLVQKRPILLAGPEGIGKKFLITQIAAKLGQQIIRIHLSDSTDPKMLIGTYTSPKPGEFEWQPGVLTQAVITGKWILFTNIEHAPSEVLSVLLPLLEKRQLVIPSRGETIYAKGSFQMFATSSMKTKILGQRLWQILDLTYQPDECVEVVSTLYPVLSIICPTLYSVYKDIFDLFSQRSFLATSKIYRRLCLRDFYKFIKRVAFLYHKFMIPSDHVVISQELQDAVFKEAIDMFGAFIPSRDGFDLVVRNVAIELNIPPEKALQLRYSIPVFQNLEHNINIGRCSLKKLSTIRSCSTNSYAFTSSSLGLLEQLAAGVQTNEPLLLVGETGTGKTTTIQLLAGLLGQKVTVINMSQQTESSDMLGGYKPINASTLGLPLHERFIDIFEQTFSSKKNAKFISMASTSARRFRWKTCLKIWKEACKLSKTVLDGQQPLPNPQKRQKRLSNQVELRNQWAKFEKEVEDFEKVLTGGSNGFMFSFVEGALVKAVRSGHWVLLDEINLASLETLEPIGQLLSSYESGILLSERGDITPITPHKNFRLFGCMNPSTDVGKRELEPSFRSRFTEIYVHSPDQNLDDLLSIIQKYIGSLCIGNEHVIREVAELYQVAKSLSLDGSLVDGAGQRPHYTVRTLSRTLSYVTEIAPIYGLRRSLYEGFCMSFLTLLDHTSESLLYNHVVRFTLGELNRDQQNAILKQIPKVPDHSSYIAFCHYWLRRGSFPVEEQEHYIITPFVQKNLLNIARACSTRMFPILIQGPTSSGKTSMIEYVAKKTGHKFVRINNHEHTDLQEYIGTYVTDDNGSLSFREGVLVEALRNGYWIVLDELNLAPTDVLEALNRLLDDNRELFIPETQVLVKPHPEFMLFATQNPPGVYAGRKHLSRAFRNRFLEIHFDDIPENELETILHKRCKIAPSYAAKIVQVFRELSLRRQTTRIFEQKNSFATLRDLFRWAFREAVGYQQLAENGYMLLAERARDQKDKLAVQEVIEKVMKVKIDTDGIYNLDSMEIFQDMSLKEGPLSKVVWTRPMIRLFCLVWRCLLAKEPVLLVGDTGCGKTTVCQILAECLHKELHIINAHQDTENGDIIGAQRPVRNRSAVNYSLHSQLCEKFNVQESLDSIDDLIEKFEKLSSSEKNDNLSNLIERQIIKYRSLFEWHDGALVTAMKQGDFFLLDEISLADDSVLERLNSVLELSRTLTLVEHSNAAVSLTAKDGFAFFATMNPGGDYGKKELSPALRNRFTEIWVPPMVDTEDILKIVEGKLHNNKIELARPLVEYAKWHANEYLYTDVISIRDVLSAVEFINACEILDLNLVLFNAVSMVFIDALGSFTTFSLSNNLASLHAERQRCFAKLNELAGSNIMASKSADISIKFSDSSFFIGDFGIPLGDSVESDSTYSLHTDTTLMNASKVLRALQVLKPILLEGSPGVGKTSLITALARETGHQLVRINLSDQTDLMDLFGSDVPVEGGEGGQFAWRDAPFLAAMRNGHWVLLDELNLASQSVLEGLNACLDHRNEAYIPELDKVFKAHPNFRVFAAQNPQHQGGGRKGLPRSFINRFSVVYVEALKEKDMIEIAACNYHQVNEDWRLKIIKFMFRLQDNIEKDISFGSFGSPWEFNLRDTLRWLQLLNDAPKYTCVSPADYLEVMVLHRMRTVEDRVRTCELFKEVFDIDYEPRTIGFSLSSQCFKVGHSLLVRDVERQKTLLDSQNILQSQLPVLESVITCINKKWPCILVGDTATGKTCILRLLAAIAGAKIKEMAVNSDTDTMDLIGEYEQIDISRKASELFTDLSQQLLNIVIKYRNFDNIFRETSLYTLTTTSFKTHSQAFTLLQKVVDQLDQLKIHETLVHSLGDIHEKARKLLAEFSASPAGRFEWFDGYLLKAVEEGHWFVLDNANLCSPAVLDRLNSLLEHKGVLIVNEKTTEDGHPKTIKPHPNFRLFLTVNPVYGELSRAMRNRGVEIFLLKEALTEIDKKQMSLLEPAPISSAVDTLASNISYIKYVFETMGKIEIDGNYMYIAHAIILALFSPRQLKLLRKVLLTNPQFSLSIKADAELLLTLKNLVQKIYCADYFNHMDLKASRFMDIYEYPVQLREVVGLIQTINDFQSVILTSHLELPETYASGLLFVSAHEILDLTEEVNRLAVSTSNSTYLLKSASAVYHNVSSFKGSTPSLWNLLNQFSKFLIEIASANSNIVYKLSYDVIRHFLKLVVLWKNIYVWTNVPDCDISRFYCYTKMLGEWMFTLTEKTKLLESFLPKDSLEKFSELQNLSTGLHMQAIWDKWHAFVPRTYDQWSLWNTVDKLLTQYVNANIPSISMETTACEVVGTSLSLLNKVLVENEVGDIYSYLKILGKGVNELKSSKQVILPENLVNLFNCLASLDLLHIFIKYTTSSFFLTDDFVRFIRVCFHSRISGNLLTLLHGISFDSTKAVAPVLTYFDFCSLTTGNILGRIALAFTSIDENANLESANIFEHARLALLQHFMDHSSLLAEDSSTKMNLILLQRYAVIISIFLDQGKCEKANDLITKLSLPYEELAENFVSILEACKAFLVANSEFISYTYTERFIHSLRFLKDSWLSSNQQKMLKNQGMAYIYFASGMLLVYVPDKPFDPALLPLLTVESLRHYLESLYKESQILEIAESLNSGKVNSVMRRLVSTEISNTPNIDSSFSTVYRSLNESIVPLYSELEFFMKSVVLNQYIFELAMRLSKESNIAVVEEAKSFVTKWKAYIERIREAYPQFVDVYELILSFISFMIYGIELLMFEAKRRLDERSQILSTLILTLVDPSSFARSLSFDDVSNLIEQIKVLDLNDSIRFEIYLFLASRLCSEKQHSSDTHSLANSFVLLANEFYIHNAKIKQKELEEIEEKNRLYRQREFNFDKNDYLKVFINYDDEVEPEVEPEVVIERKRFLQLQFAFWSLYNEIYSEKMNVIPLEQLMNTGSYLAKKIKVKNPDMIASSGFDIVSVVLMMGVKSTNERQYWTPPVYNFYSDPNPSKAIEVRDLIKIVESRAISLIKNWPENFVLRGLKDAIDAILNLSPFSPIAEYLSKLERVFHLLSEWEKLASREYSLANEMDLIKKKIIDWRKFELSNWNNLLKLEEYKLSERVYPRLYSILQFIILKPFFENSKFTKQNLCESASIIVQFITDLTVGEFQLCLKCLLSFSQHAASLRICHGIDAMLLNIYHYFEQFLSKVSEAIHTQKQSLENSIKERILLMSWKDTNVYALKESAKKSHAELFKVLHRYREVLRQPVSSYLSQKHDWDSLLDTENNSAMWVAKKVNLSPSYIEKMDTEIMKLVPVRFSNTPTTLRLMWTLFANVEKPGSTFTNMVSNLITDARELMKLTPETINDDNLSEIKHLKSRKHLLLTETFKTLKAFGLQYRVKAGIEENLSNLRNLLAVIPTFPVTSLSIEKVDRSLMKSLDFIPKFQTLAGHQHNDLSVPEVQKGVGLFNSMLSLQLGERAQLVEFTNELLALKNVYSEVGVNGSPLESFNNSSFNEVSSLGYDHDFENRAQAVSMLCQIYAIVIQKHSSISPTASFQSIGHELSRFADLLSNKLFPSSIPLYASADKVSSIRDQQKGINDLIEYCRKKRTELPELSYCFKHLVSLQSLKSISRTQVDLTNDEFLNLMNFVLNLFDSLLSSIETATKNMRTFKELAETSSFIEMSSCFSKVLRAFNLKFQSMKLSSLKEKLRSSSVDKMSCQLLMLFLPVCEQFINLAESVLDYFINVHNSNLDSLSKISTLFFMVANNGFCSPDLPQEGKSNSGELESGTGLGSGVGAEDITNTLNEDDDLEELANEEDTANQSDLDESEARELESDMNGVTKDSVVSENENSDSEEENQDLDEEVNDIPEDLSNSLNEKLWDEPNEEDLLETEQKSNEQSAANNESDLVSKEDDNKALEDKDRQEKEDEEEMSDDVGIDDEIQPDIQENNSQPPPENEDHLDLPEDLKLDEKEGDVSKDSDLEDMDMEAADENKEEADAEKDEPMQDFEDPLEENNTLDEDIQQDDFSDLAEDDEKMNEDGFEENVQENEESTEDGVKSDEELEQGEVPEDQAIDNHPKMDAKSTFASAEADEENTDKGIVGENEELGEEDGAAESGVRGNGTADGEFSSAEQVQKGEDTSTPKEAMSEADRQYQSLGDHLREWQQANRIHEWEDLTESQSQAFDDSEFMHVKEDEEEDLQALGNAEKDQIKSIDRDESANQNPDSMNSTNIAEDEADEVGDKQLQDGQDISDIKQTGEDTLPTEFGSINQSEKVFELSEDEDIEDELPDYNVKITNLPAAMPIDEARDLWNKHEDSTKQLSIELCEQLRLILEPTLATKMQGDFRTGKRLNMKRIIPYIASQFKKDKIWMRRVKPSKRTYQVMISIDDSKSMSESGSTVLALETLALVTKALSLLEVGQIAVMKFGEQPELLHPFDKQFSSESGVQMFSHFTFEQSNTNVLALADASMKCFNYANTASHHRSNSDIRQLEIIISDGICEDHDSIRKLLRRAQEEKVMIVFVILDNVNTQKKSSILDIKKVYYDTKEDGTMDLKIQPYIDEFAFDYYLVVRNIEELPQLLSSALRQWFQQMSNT

For `Nc1ncnc2c1ncn2[C@@H]1O[C@H](COP(=O)(O)OP(=O)(O)OP(=O)(O)O)[C@@H](O)[C@H]1O` [ATP], at Mdn1 (Midasin) [1], the “ATP hydrolysis by purified enzyme (radioactive and NADH-coupled ATPase assays)” value is ~ 1.0 s^–1 (specific activity at 1 mM MgATP).
Regarding `C=C(C)CSc1nnc2c(n1)[nH]c1ccccc12` [compound 1, Rbin-1], at Mdn1 (Midasin) [2], the inhibition at 1 µM is around 40%.
On to `C=C(C)CSc1nnc2c(n1)[nH]c1cc(Br)ccc12` [compound 15, Rbin-2], for which the EC50 on Mdn1 (Midasin) [3] was around 0.3 µM.

As usually defined, the inhibition is the change of the read-out against control, counted positive when it falls. What is called EC50 is the concentration that produces a half-maximal response.
